Source: US6762160B2, “Composition for removing biofilms comprising a detergent and a salt forming acid” (Universite de Montreal, priority 1998, dated 2004)
“Also recorded” adds a separate entry of the source.

Legend:
[1] = test system: dental unit waterlines bacteria; experiment: Antibacterial activity: growth in R2Am medium after disinfection of tubings;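 note: disinfected tubing pieces kept 7 days at room temperature in R2Am medium, then scored for presence or absence of bacterial growth by absorbance at 590 nm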
Method: To test the antibacterial activity, we used the same setup as above. After the 1 or 18 hour incubation, tubings were rinsed with sterile water. Pieces of tubings were dropped in sterile test tubes containing 4 ml of R2Am medium. Test tubes were capped and incubated for 7 days at room temperature. […] Data were recorded as presence or absence of growth with a spectrophotometer at λ=590 nm.

Mycobacterium sp. = format: cell-based

SMILES | growth after treatment ([1]; hydrogen peroxide 5% in Table 1 solutions) | killing activity of bactericide, even against Mycobacterium sp. (Mycobacterium sp.) | bactericide tried in cleaning solution [1]
OO [hydrogen peroxide, Hydrogen peroxide] | total absence of growth | broad host killing activity; also recorded: efficient | 
Oc1ccccc1 [phenol] |  | efficient | success
